The target of one assay is Cholinesterase (Homo sapiens, UniProt P06276). As to the kind of experiment: Inhibition of BuChE (unknown origin).
In another assay the target is Acetylcholinesterase (Homo sapiens, UniProt P22303). As to the kind of experiment: Inhibition of AChE (unknown origin).
Assay [1] in a line: Inhibition of NADPH oxidase in Homo sapiens (human) HUVEC cells. Format: cell-based.
Assay [2] concerns the target Glycogen synthase kinase-3 beta (Homo sapiens, UniProt P49841). As to the kind of experiment: Inhibition of Homo sapiens (human) recombinant GSK3beta after 30 min by Kinase-Glo assay. For orientation: Kinase-Glo reads ATP consumption through a luciferase reaction.
The next assay concerns the target Beta-secretase 1 (Homo sapiens, UniProt P56817). As to the kind of experiment: Inhibition of BACE1 (unknown origin).

Here are results for 34 molecules from ChEMBL document CHEMBL3045386, “Flavonoids as lead compounds modulating the enzyme targets in Alzheimers disease” (Med Chem Res, 2013).

Sequence of Cholinesterase (P06276 whole entry): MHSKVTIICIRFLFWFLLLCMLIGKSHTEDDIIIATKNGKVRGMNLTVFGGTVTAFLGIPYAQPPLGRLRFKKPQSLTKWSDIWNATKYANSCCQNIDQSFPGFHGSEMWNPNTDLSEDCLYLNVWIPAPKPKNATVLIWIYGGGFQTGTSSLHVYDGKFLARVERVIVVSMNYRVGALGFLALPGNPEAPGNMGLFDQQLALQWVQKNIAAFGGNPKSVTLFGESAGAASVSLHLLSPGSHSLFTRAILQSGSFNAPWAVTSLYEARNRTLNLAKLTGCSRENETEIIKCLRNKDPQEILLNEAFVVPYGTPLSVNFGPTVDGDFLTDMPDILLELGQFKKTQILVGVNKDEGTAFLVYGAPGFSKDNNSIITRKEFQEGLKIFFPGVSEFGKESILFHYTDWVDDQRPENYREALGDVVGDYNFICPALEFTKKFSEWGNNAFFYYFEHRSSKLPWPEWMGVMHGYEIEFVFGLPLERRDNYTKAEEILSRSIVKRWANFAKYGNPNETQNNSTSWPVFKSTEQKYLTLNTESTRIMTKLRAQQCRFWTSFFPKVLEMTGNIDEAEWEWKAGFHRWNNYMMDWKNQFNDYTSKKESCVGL
Sequence of Beta-secretase 1 (P56817 whole entry): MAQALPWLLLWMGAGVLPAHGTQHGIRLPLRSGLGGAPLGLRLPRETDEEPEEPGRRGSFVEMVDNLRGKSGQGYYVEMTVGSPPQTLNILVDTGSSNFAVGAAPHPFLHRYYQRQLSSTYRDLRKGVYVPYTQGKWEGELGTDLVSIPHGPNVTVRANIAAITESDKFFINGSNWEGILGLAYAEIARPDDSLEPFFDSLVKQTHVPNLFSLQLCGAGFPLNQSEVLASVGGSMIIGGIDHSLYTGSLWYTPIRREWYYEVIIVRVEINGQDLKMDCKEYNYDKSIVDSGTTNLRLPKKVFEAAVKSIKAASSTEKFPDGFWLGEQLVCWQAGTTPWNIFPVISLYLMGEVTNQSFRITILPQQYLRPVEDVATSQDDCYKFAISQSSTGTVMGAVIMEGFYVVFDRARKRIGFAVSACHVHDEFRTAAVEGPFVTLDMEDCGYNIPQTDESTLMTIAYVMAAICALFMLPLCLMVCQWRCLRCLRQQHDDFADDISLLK
Sequence of Glycogen synthase kinase-3 beta (P49841 whole entry): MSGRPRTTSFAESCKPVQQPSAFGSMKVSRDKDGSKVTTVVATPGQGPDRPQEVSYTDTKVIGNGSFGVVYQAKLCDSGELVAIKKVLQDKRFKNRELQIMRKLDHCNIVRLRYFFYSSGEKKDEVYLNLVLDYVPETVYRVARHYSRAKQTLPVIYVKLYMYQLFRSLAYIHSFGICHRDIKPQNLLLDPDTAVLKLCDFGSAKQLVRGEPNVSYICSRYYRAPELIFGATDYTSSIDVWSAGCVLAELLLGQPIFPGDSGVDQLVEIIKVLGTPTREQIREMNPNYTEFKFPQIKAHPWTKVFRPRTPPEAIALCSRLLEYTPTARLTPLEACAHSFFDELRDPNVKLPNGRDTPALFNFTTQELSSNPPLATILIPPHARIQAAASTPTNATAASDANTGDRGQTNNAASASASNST
Sequence of Acetylcholinesterase (P22303 whole entry): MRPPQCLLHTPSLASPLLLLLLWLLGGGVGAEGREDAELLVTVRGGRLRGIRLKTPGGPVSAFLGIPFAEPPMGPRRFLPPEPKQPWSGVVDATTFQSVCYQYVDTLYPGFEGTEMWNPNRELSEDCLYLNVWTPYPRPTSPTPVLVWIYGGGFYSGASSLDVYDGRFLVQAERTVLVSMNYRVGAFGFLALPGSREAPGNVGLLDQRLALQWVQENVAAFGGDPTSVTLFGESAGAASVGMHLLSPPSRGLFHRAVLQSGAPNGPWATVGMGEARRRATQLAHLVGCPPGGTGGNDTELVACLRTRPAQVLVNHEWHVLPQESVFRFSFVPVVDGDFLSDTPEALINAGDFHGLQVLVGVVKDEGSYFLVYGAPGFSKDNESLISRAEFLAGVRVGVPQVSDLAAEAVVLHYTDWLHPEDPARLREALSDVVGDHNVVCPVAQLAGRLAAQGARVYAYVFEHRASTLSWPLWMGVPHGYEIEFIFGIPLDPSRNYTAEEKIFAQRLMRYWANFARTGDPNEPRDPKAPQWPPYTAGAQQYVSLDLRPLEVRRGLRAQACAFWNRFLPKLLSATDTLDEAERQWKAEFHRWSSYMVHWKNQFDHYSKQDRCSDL

By IC50 is commonly meant the concentration at which inhibition is half-maximal. The term Ki denotes a dissociation constant, usually derived from enzyme kinetics or from competition with a known ligand. Read a high Ki as a looser hold on the target. As for `CC(C)=CCC/C(C)=C/Cc1cc(-c2cc(=O)c3c(O)cc(O)cc3o2)c(O)cc1O`, the IC50 against Cholinesterase was 16.2 µM. On Acetylcholinesterase, this molecule yielded an IC50 of 16.2 µM and a Ki of 3.1 µM.

With `COc1cc(O)c(-c2cc(=O)c3c(O)cc(O)cc3o2)cc1C/C=C(\C)CCC=C(C)C`, the half-inhibitory concentration (IC50) against Cholinesterase and at Acetylcholinesterase was 11 µM each time. The Ki turned out to be 1.74 µM on Cholinesterase and 3.1 µM at Acetylcholinesterase. In the case of `COc1cc2occ(-c3ccc(OC4CCN(Cc5ccccc5)CC4)cc3)c(=O)c2cc1OC`, at Acetylcholinesterase, half-maximal inhibition (IC50) required 0.093 µM. The molecule `COc1cc2occ(-c3ccc(N4CCCC4)cc3)c(=O)c2cc1OC` returned an IC50 against Acetylcholinesterase of 1.63 µM. In the case of `COc1cc([C@H]2Oc3cc(O)cc(O)c3C[C@H]2O)ccc1O` [3'-O-METHYL EPICATECHIN], the IC50 in assay [1] came to 7.9 µM. Same read-out and setting: to `O=C1c2c(O)cc(O)cc2O[C@H](c2ccc(O)c(O)c2)[C@H]1O` [(+)-TAXIFOLIN] belongs 12 µM; to `Oc1cc(O)c2c(c1)O[C@H](c1ccc(O)c(O)c1)[C@H](O)C2` [(-)-EPICATECHIN], over 100 µM. In the case of `O=c1cc(-c2ccc(O)cc2)oc2cc(O)cc(O)c12` [APIGENIN], the IC50 in assay [2] worked out at 1.9 µM; at Acetylcholinesterase, 0.012 µM. Molecule `CC(C)=CC1Oc2cc(O)ccc2-c2oc3c4c(cc(O)c3c(=O)c21)OC(C)(C)C=C4` (configuration not stated) [CYCLOMORUSIN] yielded an IC50 on Cholinesterase of 1.7 µM. Moreover, at Acetylcholinesterase, the Ki worked out at 3.1 µM. In assay [1], `COc1ccc(-c2cc(=O)c3c(O)cc(O)cc3o2)cc1O` [DIOSMETIN] had an IC50 of 7.6 µM. On to `Oc1cc(O)c2c(c1)O[C@H](c1cc(O)c(O)c(O)c1)[C@H](O)C2` [EPIGALLOCATECHIN], for which the IC50 in assay [1] turned out to be 8 µM. Take `O=c1c(O)c(-c2ccc(O)c(O)c2)oc2cc(O)ccc12` [FISETIN]: the midpoint of inhibition on Acetylcholinesterase, the IC50, lay at 0.012 µM.

The molecule `O=c1c(O)c(-c2ccccc2)oc2cc(O)cc(O)c12` [GALANGIN] yielded an IC50 on Acetylcholinesterase of 0.012 µM. As to `COc1ccc([C@@H]2CC(=O)c3c(O)cc(O)cc3O2)cc1O` [HESPERETIN], in assay [2], the IC50 turned out to be 26.9 µM. On the same count and under the same terms, under `COc1ccc([C@@H]2CC(=O)c3c(O)cc(O[C@@H]4O[C@H](CO[C@@H]5O[C@@H](C)[C@H](O)[C@@H](O)[C@H]5O)[C@@H](O)[C@H](O)[C@H]4O)cc3O2)cc1O` [HESPERIDIN] stands 100 µM. In assay [1], `OCCc1ccc(O)c(O)c1` [HYDROXYTYROSOL] had an IC50 of 7.5 µM. Regarding `COc1cc(-c2oc3cc(O)cc(O)c3c(=O)c2O)ccc1O` [ISORHAMNETIN], in assay [1], half-maximal inhibition (IC50) required 2.8 µM. As to `O=c1c(OC2O[C@H](CO)[C@H](O)[C@H](O)[C@H]2O)c(-c2ccc(O)cc2)oc2cc(O)cc(O)c12` (stereo partly drawn) [KAEMPFEROL 3-O-D-GALACTOSIDE], the IC50 at Acetylcholinesterase stood at 0.012 µM. On to `O=c1c(O)c(-c2ccc(O)cc2)oc2cc(O)cc(O)c12` [KAEMPFEROL], for which the IC50 was 10 µM in assay [1] and 14.7 µM against Beta-secretase 1. `CC(C)=CCc1c(-c2ccc(O)cc2O)oc2c(CC=C(C)C)c(O)cc(O)c2c1=O` [KUWANON C] showed an IC50 against Cholinesterase of 1.7 µM. The molecule further showed a Ki on Acetylcholinesterase of 3.1 µM.

With `CC(C)=CCC/C(C)=C/Cc1cc(C2CC(=O)c3c(O)cc(O)cc3O2)c(O)cc1O` (configuration not stated) [KUWANON E], the IC50 at Cholinesterase is 1.7 µM. Also, at Acetylcholinesterase, the Ki worked out at 3.1 µM.

With `COc1cc(O)c(C2CC(=O)c3c(O)cc(O)cc3O2)cc1C/C=C(\C)CCC=C(C)C` (configuration not stated) [KUWANONU], on Cholinesterase, the IC50 turned out to be 1.7 µM. Besides, the affinity at Acetylcholinesterase, expressed as Ki, was 3.1 µM. On to `O=c1cc(-c2ccc(O)c(O)c2)oc2cc(O)cc(O)c12` [LUTEOLIN], for which, in assay [2], the IC50 was 1.5 µM. At Beta-secretase 1, `O=c1c(O)c(-c2ccc(O)cc2O)oc2cc(O)cc(O)c12` [MORIN] returned a concentration for half-maximal inhibition (IC50) of 21.7 µM. Molecule `CC(C)(O)CCc1c(-c2ccc(O)cc2O)oc2c3c(cc(O)c2c1=O)OC(C)(C)C=C3` [MORUSINOL] yielded a half-inhibitory concentration (IC50) at Cholinesterase of 1.7 µM. Also, the Ki on Acetylcholinesterase stood at 3.1 µM. For `CC(C)=CCc1c(-c2ccc(O)cc2O)oc2c3c(cc(O)c2c1=O)OC(C)(C)C=C3` [MORUSIN], in that order: 1.7 µM and 3.1 µM. Take `O=c1c(O)c(-c2cc(O)c(O)c(O)c2)oc2cc(O)cc(O)c12` [MYRICETIN]: the IC50 against Beta-secretase 1 amounted to 2.8 µM; against Acetylcholinesterase, 0.012 µM. `O=C1C[C@@H](c2ccc(O)cc2)Oc2cc(O)cc(O)c21` [NARINGENIN]: the half-maximal inhibitory concentration (IC50) in assay [2] was 45.7 µM. Still for that read-out and setting: to `C[C@@H]1O[C@@H](O[C@H]2[C@H](Oc3cc(O)c4c(c3)O[C@H](c3ccc(O)cc3)CC4=O)O[C@H](CO)[C@@H](O)[C@@H]2O)[C@H](O)[C@H](O)[C@H]1O` [NARINGIN] belongs 100 µM. Take `CC1(C)C=Cc2c(cc(O)c3c(=O)c4c(oc23)-c2ccc(O)cc2OC(C(C)(C)O)C4)O1` (configuration not stated) [NEOCYCLOMORUSIN]: the 50% inhibitory concentration (IC50) on Cholinesterase came out at 1.7 µM. In addition, affinity at Acetylcholinesterase was put at a Ki of 3.1 µM. As for `Oc1cc(O)c2c(c1)O[C@H](c1ccc(O)c(O)c1)[C@H](O)[C@H]2c1c(O)cc(O)c2c1O[C@H](c1ccc(O)c(O)c1)[C@H](O)C2` [PROCYANIDIN B2], the half-inhibitory concentration (IC50) in assay [1] was found to be 3.8 µM. Regarding `O=c1c(O)c(-c2ccc(O)c(O)c2)oc2cc(O)cc(O)c12` [QUERCETIN], the IC50 in assay [1] was over 100 µM; in assay [2], 2 µM; against Cholinesterase, 421 µM; on Acetylcholinesterase, 354 µM. `C[C@@H]1O[C@@H](OC[C@H]2O[C@@H](Oc3c(-c4ccc(O)c(O)c4)oc4cc(O)cc(O)c4c3=O)[C@H](O)[C@@H](O)[C@@H]2O)[C@H](O)[C@H](O)[C@H]1O` [RUTIN] gave a concentration for half-maximal inhibition (IC50) on Acetylcholinesterase of 0.012 µM. On to `OCCc1ccc(O)cc1` [TYROSOL], for which, in assay [1], half-maximal inhibition (IC50) required 7.5 µM.
